Data set [1] is described as follows: Solubility of the compound at 105 Tween 80. Type of data set: physicochemical.
In data set [2] the target is Cyclin-dependent kinase 2/cyclin A (Homo sapiens, UniProt P24941). Briefly: Inhibition of CDK2/Cyclin A. Type of data set: protein-complex assay.
Data set [3] is described as follows: Terminal half life in CD1 mouse at 10 mg/kg, po administered as single dose by LC/MS/MS analysis. The settings on record: in vivo, read-out: beta t1/2 (converted). Details: dose 10 mg/kg, route oral. Type of data set: ADME, organism-based.
For data set [4], the target named is Serine/threonine-protein kinase Nek6 (Homo sapiens, UniProt Q9HC98). Briefly: Inhibition of NEK6.
Data set [5] concerns the target T1, Receptor-type tyrosine-protein kinase FLT3 (Homo sapiens, UniProt P36888).
T1 sequence (P36888 whole entry): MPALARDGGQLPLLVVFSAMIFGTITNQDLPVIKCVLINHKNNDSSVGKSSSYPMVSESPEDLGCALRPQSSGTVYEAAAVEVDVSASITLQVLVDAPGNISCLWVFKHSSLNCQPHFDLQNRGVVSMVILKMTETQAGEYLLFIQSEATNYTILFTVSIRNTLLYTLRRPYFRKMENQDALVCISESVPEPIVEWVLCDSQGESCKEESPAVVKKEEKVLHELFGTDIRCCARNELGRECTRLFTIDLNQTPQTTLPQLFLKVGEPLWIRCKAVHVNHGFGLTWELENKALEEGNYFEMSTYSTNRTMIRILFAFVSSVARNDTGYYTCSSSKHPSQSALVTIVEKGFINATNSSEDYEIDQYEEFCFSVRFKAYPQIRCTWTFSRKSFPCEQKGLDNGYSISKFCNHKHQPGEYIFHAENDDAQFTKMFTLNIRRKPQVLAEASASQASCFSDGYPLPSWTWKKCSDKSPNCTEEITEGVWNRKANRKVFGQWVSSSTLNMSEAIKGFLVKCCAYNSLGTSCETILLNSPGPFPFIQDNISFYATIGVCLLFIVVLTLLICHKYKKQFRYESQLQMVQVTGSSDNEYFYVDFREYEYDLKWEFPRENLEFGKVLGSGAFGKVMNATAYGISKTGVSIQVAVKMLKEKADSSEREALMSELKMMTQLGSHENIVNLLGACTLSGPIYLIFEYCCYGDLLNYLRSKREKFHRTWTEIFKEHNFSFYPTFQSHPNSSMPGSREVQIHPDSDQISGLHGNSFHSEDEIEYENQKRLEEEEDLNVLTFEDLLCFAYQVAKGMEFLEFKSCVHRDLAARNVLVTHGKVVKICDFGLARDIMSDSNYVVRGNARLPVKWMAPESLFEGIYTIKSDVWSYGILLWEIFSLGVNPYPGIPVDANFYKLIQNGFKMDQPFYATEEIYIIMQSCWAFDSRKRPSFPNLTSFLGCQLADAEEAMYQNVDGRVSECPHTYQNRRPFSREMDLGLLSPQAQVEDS
The experiment in a line: Inhibition of FLT3.

Data set [6] is described as follows: Intrinsic clearance in human liver microsomes. It is filed as ADME, Microsome. In general terms: Liver microsomes are a subcellular fraction often used to study metabolism.
A short description of data set [7]: Oral bioavailability in CD1 mouse at 10 mg/kg administered as single dose by LC/MS/MS analysis. It is filed as ADME, organism-based. The settings on record: in vivo.
The nature of data set [8]: Terminal half life in CD1 mouse at 10 mg/kg, iv administered as single dose by LC/MS/MS analysis. The conditions noted are these: in vivo, read-out: beta t1/2 (converted). It is filed as ADME, organism-based. Details: dose 10 mg/kg, route intravenous.
A short description of data set [9]: AUC (0 to infinity) in CD1 mouse at 10 mg/kg, po administered as single dose by LC/MS/MS analysis. It is filed as ADME, organism-based. Also noted: time infinity, dose 10 mg/kg, route oral. The conditions noted are these: plasma.
A short description of data set [10]: Permeability of the compound by PAMPA. It is filed as ADME. In general terms: In PAMPA a lipid-coated filter parts donor from acceptor wells.
A short description of data set [11]: Solubility of the compound at pH 7. It is filed as physicochemical. The conditions noted are these: buffer.
Data set [12] is described as follows: Cmax in CD1 mouse at 10 mg/kg, po administered as single dose by LC/MS/MS analysis. Type of data set: ADME, organism-based. Also noted: dose 10 mg/kg, route oral. The settings on record: in vivo.
Data set [13] is described as follows: Inhibition of casein kinase 2.
Data set [14] addresses ALK tyrosine kinase receptor (Homo sapiens, UniProt Q9UM73). Briefly: Inhibition of ALK.
Data set [15] concerns the target Serine/threonine-protein kinase PLK2 (Homo sapiens, UniProt Q9NYY3). The experiment in a line: Inhibition of PLK2.
Data set [16] in a line: Inhibition of PDGFR.
Data set [17] concerns the target Serine/threonine-protein kinase PLK3 (Homo sapiens, UniProt Q9H4B4). Briefly: Inhibition of PLK3.
A short description of data set [18]: AUC (0 to infinity) in CD1 mouse at 10 mg/kg, iv administered as single dose by LC/MS/MS analysis. The settings on record: plasma. It is filed as ADME, organism-based. Also noted: time infinity, dose 10 mg/kg, route intravenous.
In another data set the test system is A2780. Briefly: cells. The settings on record: Homo sapiens, A2780, 72 h.
Data set [19] is described as follows: Clearance in CD1 mouse at 10 mg/kg, iv administered as single dose by LC/MS/MS analysis. It is filed as ADME, organism-based. Details: dose 10 mg/kg, route intravenous. The settings on record: in vivo.
Data set [20] is described as follows: Volume of distribution at steady state in CD1 mouse at 10 mg/kg, iv administered as single dose by LC/MS/MS analysis. The conditions noted are these: in vivo, read-out: Vdss. Also noted: dose 10 mg/kg, route intravenous. It is filed as ADME, organism-based.

Molecules are shown by their SMILES. Converted amounts (≈) assume the structure as drawn.

This note sets out measurements from ChEMBL document CHEMBL1268971, “4,5-Dihydro-1H-pyrazolo[4,3-h]quinazolines as potent and selective Polo-like kinase 1 (PLK1) inhibitors” (Bioorg Med Chem Lett, 2010).

The solubility is how much of the substance goes into solution per volume. In general, IC50 refers to the midpoint of a concentration-inhibition curve. Read a low IC50 as inhibition by little substance. By CLint scaled is commonly meant the capacity of the preparation to metabolise the compound, expressed as a volume cleared per time. Read a high CLint scaled as rapid turnover. Broadly, the bioavailability is the share of a dose that reaches the circulation, judged against a reference dose that is usually intravenous. Higher therefore signals good availability. By AUC(0-inf) is commonly meant the area under the concentration-time curve extrapolated to infinity. A lower AUC(0-inf) goes with less exposure. Usually Papp stands for a coefficient for how fast a substance crosses the barrier. Low readings indicate poor permeation, high ones ready permeation. By Cmax is commonly meant the peak of the concentration-time curve. By clearance is commonly meant the volume of plasma or blood freed of the substance per unit of time. Low readings indicate a low capacity for elimination, high ones a high capacity for elimination.

Chain of Serine/threonine-protein kinase Nek6 (Q9HC98 whole entry): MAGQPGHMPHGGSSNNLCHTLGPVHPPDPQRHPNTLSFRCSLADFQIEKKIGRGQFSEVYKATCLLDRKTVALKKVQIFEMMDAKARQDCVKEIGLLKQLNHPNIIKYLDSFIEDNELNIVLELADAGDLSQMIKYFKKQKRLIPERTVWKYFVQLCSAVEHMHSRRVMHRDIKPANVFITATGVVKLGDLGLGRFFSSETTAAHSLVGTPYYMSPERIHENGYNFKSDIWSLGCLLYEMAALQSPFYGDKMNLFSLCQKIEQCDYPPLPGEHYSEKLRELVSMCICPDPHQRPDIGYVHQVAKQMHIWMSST
Chain of Serine/threonine-protein kinase PLK3 (Q9H4B4 whole entry): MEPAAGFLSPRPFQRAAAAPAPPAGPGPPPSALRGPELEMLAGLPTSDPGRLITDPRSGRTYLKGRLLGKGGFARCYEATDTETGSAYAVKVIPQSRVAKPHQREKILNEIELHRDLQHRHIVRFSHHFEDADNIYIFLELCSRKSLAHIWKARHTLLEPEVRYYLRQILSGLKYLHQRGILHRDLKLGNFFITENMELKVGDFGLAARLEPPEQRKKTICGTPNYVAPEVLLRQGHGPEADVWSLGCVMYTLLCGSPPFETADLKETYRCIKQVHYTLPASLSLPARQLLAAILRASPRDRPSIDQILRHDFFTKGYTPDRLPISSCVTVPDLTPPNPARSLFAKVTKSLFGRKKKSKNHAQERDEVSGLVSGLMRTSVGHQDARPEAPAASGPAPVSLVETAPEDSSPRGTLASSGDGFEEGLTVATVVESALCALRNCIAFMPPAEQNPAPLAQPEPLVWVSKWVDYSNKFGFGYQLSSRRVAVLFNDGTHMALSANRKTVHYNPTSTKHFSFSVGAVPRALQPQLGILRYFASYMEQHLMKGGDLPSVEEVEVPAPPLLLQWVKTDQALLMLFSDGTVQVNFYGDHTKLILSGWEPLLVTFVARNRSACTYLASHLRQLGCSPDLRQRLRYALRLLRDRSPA
Chain of Serine/threonine-protein kinase PLK2 (Q9NYY3 whole entry): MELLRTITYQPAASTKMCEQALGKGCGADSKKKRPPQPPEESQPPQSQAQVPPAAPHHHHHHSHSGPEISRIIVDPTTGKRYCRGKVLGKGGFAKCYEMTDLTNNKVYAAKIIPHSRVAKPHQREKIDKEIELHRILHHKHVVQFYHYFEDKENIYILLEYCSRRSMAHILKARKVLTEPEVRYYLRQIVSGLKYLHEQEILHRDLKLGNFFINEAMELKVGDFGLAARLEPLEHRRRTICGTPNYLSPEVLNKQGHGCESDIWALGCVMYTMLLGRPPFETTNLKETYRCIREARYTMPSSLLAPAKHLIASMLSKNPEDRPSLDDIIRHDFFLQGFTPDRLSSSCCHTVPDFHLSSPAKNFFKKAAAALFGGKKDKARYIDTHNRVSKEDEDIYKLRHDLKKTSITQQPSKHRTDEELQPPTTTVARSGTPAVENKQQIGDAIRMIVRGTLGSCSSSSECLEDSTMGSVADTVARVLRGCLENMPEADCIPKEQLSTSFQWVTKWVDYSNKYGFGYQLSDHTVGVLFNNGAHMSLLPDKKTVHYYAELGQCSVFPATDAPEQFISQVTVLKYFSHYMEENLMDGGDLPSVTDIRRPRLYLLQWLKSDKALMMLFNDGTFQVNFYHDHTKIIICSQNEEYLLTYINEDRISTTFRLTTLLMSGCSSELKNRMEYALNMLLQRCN
Chain of ALK tyrosine kinase receptor (Q9UM73 whole entry): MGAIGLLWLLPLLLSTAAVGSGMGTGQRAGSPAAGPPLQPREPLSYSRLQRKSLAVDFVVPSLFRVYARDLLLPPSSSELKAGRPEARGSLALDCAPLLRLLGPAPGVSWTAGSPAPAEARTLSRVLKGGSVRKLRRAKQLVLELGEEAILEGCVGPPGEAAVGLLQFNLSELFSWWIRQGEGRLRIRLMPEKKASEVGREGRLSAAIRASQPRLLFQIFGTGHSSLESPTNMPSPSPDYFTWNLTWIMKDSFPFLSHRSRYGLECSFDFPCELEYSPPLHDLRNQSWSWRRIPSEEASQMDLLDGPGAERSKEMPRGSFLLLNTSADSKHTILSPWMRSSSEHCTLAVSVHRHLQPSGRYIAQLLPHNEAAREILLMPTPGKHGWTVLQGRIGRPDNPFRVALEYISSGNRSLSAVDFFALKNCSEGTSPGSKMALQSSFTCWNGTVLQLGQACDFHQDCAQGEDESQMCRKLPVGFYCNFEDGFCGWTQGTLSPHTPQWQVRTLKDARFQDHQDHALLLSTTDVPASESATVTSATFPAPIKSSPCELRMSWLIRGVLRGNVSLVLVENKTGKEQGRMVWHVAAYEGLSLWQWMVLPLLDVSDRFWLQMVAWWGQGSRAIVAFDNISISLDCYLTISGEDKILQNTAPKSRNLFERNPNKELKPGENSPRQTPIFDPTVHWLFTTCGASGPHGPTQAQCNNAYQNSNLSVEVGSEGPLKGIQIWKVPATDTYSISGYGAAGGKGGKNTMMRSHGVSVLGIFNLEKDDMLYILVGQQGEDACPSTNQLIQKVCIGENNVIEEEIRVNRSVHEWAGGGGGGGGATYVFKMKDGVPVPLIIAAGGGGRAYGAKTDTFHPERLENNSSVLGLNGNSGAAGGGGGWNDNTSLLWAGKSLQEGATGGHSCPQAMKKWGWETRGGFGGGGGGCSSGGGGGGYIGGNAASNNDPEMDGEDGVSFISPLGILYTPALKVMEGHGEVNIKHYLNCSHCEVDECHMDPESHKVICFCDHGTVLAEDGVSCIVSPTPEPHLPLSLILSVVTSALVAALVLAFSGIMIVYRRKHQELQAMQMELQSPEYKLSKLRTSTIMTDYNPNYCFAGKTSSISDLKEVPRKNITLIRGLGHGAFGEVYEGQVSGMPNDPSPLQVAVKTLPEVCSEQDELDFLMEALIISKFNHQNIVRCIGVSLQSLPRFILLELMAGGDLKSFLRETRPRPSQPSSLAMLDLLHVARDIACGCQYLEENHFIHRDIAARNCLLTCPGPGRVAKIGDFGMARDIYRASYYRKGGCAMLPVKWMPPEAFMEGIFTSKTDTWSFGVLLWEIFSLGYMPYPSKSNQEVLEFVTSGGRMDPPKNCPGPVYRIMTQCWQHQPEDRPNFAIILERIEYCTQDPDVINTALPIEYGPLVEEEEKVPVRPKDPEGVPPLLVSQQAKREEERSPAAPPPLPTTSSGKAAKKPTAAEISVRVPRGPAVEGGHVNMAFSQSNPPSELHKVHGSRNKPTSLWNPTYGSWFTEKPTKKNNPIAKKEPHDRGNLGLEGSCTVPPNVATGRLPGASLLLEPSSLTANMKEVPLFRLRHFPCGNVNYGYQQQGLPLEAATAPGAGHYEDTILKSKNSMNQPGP

As to `C=Cn1nc(C(N)=O)c2c1-c1nc(Nc3cc(N4CCN(C)CC4)ccc3OC(F)(F)F)ncc1CC2`, the figures for the solubility in data set [1] and in [11] were above 3.2 mg/mL and 8 µM (≈ 4.12 µg/mL), respectively. For the same compound, the IC50 in data set [2] was above 10 µM; in data set [4] it was 0.336 µM; in data set [5] it was 0.226 µM; in [13], 0.069 µM; in data set [14], 2.38 µM; in [15], 0.335 µM. Also, the values for the 50% inhibitory concentration (IC50) (in data set [16]; in [17]; in the data set with A2780) were 1.46 µM, 0.182 µM and 0.008 µM, respectively. Further, the half-life in data set [3] is 2.58 h; in data set [8] it was 0.89 h. Moreover, the intrinsic metabolic clearance (CLint scaled) in data set [6] turned out to be 1.73 L/h/kg. The same compound registered a bioavailability in [7] of 29%. Further, the AUC(0-inf) in data set [9] worked out at 2.15 µM·h; in data set [18] it was 5.37 µM·h. Also, in data set [10], the apparent permeability (Papp) was 196 nm/s. The concentration in [12] peaked (Cmax) at 0.61 µM. The clearance in data set [19] is 3.44 L/h/kg. Also, in data set [20], the Vd came out at 2.58 L/kg.
